Source: PubChem BioAssay AID463229 (Broad Institute, 2010)

What follows are molecules tested on INS-1E rat beta cells, no cytokines, CellTiter-Glo ATP, 48 h (assay: cytokine-free beta-cell viability effect – INS-1E rat cells, ATP luminescence, cherry pick, counter-screen for beta-cell apoptosis protection project, dose response (AID 463229)).

In order of falling AC50:
1. CCCCCCCCCCOC(=O)C[N+](C)(C)C/C=C(/C)Cl  16.7 µM
2. COc1ccc(O)c(/C=N/NC(=S)Nc2cccnc2)c1  15.6 µM
3. COc1cc(Br)cc(/C=N/NC(=O)Cc2ccc(C(F)(F)F)cc2[N+](=O)[O-])c1O  14.7 µM
4. CCc1ccc(C2CC(c3cccc(Cl)c3)n3nc(N)nc3N2)cc1 (stereo not given)  14.7 µM
5. CC(C)C[C@H](NC(=O)c1nc[nH]c1C(=O)N[C@@H](CC(C)C)C(=O)OC(C)(C)C)C(=O)OCc1ccccc1  14.6 µM
6. CC(C)c1ccc(COc2ccc(C(=O)N3CCOCC3)cc2)cc1  12.9 µM
7. O=C(NCc1cccnc1)Nc1ccc([N+](=O)[O-])cc1  11.8 µM
8. O=C(C#Cc1ccccc1)Nc1cccc(F)c1  11.8 µM
9. CN(C)CC(C(=O)c1ccccc1)c1ccccc1 (stereo not given)  11.8 µM
10. S=C(Nc1ccc(Nc2ccccc2)cc1)Nc1ccccn1  11.5 µM
11. CC(NC(=S)NC1CCCCC1)c1ccc(C(C)(C)C)cc1 (stereo not given)  11.2 µM
12. Cc1cc(/C=N/n2c(COc3ccccc3C)nc3ccccc3c2=O)c(O)c([N+](=O)[O-])c1  8.92 µM
13. C/C(=N\NC(=O)c1ccccc1OCc1ccc(F)cc1)c1ccccn1  8.35 µM
14. O=C(N/N=C/c1cc(Br)c(O)c(Br)c1O)c1ccc2c(c1)OCCO2  8.27 µM
15. Oc1c(CN2CCOCC2)cc(COCc2ccccc2)c2cccnc12  8.19 µM
16. NS(=O)(=O)c1ccc(N=Nc2ccc(O)c3ncccc23)cc1  8.05 µM
17. CC(C)C(=O)NC(=S)/C=C1/N(C)c2ccccc2C1(C)C  7.7 µM
18. Cn1nnnc1Sc1ncnc2scc(-c3cc4ccccc4o3)c12  7.61 µM
19. Cc1ccccc1OCCCCn1cnc2ccccc21  7.47 µM
20. Cc1cc(Br)cc(/C=N/NC(=O)c2ccc3c(c2)OCO3)c1O  7.43 µM
21. c1ccc2c(c1)ncn2CCCCOc1ccc2c(c1)CCC2  7.37 µM
22. COc1ccccc1C(NC(C)=O)c1cc(Cl)c2cccnc2c1O (stereo not given)  7.24 µM
23. COc1cc(/C=N/N=C(N)N)ccc1OCc1ccc(Cl)cc1  7.22 µM
24. Cc1ccc(-n2cccc2C(=S)N=P(N(C)C)(N(C)C)N(C)C)cc1  7.11 µM
25. COc1ccc(C)cc1Nc1n[n+](-c2ccccc2)c(-c2c(OC)ccc3ccccc23)s1  6.88 µM
26. CCCCC1CCC(C(=O)N(CC(C)C)c2c(N)n(Cc3ccccc3)c(=O)[nH]c2=O)CC1 (stereo not given)  6.87 µM
27. COc1cccc(CN(C)C(=O)c2cc(COc3ccc4ncccc4c3)on2)c1  6.86 µM
28. CC1=C(CO)C(=O)OC([C@@H](C)C2CC[C@H]3C4C[C@H]5O[C@]56[C@@H](O)C=CC(=O)[C@]6(C)C4CC[C@]23C)C1 (stereo not given in full)  6.2 µM
29. C=CCn1c(C)c(/C=C/c2cc[n+](C)cc2)c2ccccc21  5.99 µM
30. CCCOc1ccc(CSc2nc3ccccc3[nH]2)cc1  5.41 µM
31. O=C(/C=C/c1ccc(F)cc1)NC(=S)NNC(=O)c1cnccn1  5.29 µM
32. CCN(CC)S(=O)(=O)c1ccc(N2CCN(c3ccccc3OC)CC2)c(N)c1  5.19 µM
33. COc1ccccc1N1CCN(c2ncc(C(=O)N3CCN(c4cccc(Cl)c4)CC3)c3ccccc23)CC1  4.69 µM
34. Cc1ccc(NC2=CC(=O)C(=O)c3ccccc32)c(C)c1  4.39 µM
35. O=C(N/N=C/c1sc2ccccc2c1O)c1ccccc1  3.92 µM
36. CCOC(=O)c1c(CSc2nc(C)cc(C)c2C#N)n(C)c2cc(Br)c(OC(C)=O)cc12  3.73 µM
37. Cc1cc(C)nc(SCC(=O)NC2=NN=C(c3ccc(Br)cc3)CS2)n1  2.52 µM
38. Oc1[nH]c2ccc(Br)cc2c1N=NC(=S)N1CCOCC1  2.39 µM
39. CCCc1sc(N/N=C/c2ccccn2)nc1-c1ccc(F)cc1  2.27 µM
40. O=C(Nc1ccc([N+](=O)[O-])cc1)Nc1nc(-c2ccc(Cl)s2)cs1  1.88 µM
41. CCN1/C(=C/c2cccc[n+]2C)Sc2ccc(OC)cc21  1.58 µM
42. Cc1ccc(Nc2cc(C)nn2-c2nc(C)cc(=O)[nH]2)cc1  1.57 µM
43. CCOc1ccc(-n2c(-c3ccccc3)c[n+]3c2CCC3)cc1  1.53 µM
44. COc1ccc(CCNc2ncnc3sccc23)cc1OC  1.13 µM
45. CC(C)(C)c1cc(C=C(C#N)C#N)cc(C(C)(C)C)c1O  0.984 µM
